Measured values published in patent US7659289B2, “Hydroxyethylene-based β-secretase inhibitors and use thereof” (CoMentis, Inc., priority 2004, dated 2010).

Legend:
[1] = system: Aβ production; experiment: Cellular Aβ IC50 determination (Aβ40 sandwich ELISA); format: cell-based; settings: Cricetulus griseus; Aβ40, Chinese hamster ovary cells over-expressing human APP695 with London and Swedish mutations, 24 h incubation
Protocol: The potency of compounds against memapsin 2 activity was determined in a cellular assay of Aβ production. […] Chinese hamster ovary cells that over-express human APP695 with the London and Swedish mutations were seeded in multi-well plates at 10% confluency. Compounds were dissolved in DMSO to concentrations near 1 mM, and diluted into culture media to a final concentration near 4 μM (final 0.4% DMSO). Compounds were diluted serially and applied to cells in multi-well plates 48 h after seeding. Incubation was continued in 5% CO2 at 37 degrees C. for 24 h. Aliquots were removed and assayed for Aβ40 content using a sandwich ELISA (BioSource International). Amount of Aβ40 over the range of concentration of compounds, relative to control incubations, were fit to a 4-parameter IC50 model.

[2] = biological target: memapsin 2 (Homo sapiens, UniProt P56817); experiment: Inhibition of memapsin 2 beta-secretase activity toward fluorogenic substrate FS-2; format: biochemical; settings: pH 4, 37° C., 20 minutes pre-incubation, fluorogenic substrate FS-2, tight-binding model; read-out: M2 Ki
Sequence of memapsin 2 (P56817 46-501): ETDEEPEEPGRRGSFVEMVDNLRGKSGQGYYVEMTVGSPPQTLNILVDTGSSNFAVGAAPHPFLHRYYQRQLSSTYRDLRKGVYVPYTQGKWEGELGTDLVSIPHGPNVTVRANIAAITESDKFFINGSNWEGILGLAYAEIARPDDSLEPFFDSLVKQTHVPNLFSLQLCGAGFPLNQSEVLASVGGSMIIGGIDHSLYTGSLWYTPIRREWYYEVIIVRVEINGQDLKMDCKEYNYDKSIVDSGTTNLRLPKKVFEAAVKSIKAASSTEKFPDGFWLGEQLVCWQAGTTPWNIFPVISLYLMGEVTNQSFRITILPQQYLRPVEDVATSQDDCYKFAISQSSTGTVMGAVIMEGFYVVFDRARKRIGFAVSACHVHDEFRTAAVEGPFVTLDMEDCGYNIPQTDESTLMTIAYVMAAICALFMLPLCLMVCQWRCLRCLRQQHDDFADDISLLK

[3] = biological target: Cathepsin D (Homo sapiens, UniProt P07339); experiment: Inhibition of cathepsin D activity (MALDI-TOF, substrate peptide […]); format: biochemical; settings: pH 4.1, 37 degrees C., read-out: Cath D Ki
Sequence of Cathepsin D (P07339 65-412, species assumed): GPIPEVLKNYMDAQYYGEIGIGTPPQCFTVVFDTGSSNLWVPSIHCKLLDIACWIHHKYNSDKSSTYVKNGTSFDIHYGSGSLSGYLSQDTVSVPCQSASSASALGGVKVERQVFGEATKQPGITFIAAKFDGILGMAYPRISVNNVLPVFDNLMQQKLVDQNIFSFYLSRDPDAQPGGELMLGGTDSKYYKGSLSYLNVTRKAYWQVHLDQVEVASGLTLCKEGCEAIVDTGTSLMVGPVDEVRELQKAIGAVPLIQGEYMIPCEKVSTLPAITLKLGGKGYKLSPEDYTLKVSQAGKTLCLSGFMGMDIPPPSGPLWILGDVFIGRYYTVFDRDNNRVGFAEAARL
Protocol: After equilibration at 37 degrees C., the reactions were initiated by the addition of an aliquot of memapsin 2. Aliquots were removed at time intervals, and combined with an equal volume of MALDI-TOF matrix (α-hydroxycinnamic acid in acetone, 20 mg/ml) and immediately spotted in duplicate onto a stainless-steel MALDI sample plate. MALDI-TOF mass spectrometry was performed on a PE Biosystems Voyager DE instrument at the Molecular Biology Resource Center on campus. The instrument was operated at 25,000 accelerating volts in positive mode with a 150 ns delay. Ions with a mass-to-charge ratio (m/z) were detected in the range of 650-2000 atomic mass units. Data was analyzed by the Voyager Data Explorer module to obtain ion intensity data for mass species of substrates and corresponding products in a given mixture. Relative product formation was calculated as the ratio of signal intensity of the product to the sum of signal intensities of both product and the corresponding substrate. Relative product formed per unit time was obtained from non-linear regression analysis of the data representing the initial 15% formation of product using the model: 1−e^−kT,
where k is the relative hydrolytic rate constant and T is time in seconds. Initial rates were expressed relative to uninhibited controls and fit to a tight-binding model of competitive inhibition as above.

SMILES: Cc1csc(C[C@H](C)C(=O)N[C@@H](CN(C)S(C)(=O)=O)C(=O)N[C@@H](CC(C)C)[C@@H](O)C[C@@H](C)C(=O)N[C@H](C(=O)NCC(C)C)C(C)C)n1 [(2R,4S,5S)-4-hydroxy-N-((S)-1-(isobutylamino)-3-methyl-1-oxobutan-2-yl)-2,7-dimethyl-5-((S)-2-((S)-2-methyl-3-(4-methylthiazol-2-yl)propanamido)-3-(N-methylmethylsulfonamido)propanamido)octanamide]
- IC50 [1]: 6000 to 100000 nM
- Ki [2]: 100 to 600 nM

SMILES: CC[C@@H](Cc1nc(C)cs1)C(=O)N[C@@H](CN(C)OC)C(=O)N[C@@H](CC(C)C)[C@@H](O)C[C@@H](C)C(=O)N[C@H](C(=O)NCC(C)C)C(C)C [(2R,4S,5S)-4-hydroxy-N-((S)-1-(isobutylamino)-3-methyl-1-oxobutan-2-yl)-5-((S)-3-(methoxy(methyl)amino)-2-((S)-2-((4-methylthiazol-2-yl)methyl)butanamido)propanamido)-2,7-dimethyloctanamide]
- IC50 [1]: > 100000 nM
- Ki [2]: 100 to 600 nM

SMILES: Cc1nc(COC(=O)N[C@@H](CC(=O)OCc2ccccc2)C(=O)N[C@@H](CC(C)C)[C@@H](O)C[C@@H](C)C(=O)N[C@H](C(=O)NCC(C)C)C(C)C)c(C)o1 [(S)-benzyl 3-(((2,5-dimethyloxazol-4-yl)methoxy)carbonylamino)-4-((4S,5S,7R)-5-hydroxy-8-((S)-1-(isobutylamino)-3-methyl-1-oxobutan-2-ylamino)2,7-dimethyl-8-oxooctan-4-ylamino)-4-oxobutanoate]
- Ki [3]: < 100 nM
- Ki [2]: < 100 nM

SMILES: CC[C@H](Cn1nc(C)cc1C)C(=O)N[C@@H](CNC(=O)OC(C)(C)C)C(=O)N[C@@H](CC(C)C)[C@@H](O)C[C@@H](C)C(=O)N[C@H](C(=O)NCC(F)(F)F)C(C)C [tert-butyl (S)-2-((R)-2-((3,5-dimethyl-1H-pyrazol-1-yl)methyl)butanamido)-3-((4S,5S,7R)-5-hydroxy-2,7-dimethyl-8-((S)-3-methyl-1-oxo-1-(2,2,2-trifluoroethylamino)butan-2-ylamino)-8-oxooctan-4-ylamino)-3-oxopropylcarbamate]
- Ki [3]: 100 to 600 nM
- Ki [2]: > 600 nM

SMILES: COCO[C@@H](Cn1nc(C)cc1C)C(=O)N[C@@H](CNC(=O)OC(C)(C)C)C(=O)N[C@@H](CC(C)C)[C@@H](O)C[C@@H](C)C(=O)N[C@H](C(=O)NCC(C)C)C(C)C [tert-butyl (S)-2-((S)-3-(3,5-dimethyl-1H-pyrazol-1-yl)-2-(methoxymethoxy)propanamido)-3-((4S,5S,7R)-5-hydroxy-8-((S)-1-(isobutylamino)-3-methyl-1-oxobutan-2-ylamino)-2,7-dimethyl-8-oxooctan-4-ylamino)-3-oxopropylcarbamate]
- Ki [3]: < 100 nM
- Ki [2]: 100 to 600 nM

SMILES: COc1ccc(C[C@H](NC(=O)[C@H](CNC(=O)OC(C)(C)C)NC(=O)[C@@H](C)Cc2nc(C)cs2)[C@@H](O)C[C@@H](C)C(=O)N[C@H](C(=O)NCC(C)C)C(C)C)cc1 [tert-butyl (S)-3-((2S,3S,5R)-3-hydroxy-6-((S)-1-(isobutylamino)-3-methyl-1-oxobutan-2-ylamino)-1-(4-methoxyphenyl)-5-methyl-6-oxohexan-2-ylamino)-2-((S)-2-methyl-3-(4-methylthiazol-2-yl)propanamido)-3-oxopropylcarbamate]
- Ki [3]: < 100 nM
- Ki [2]: > 600 nM

SMILES: Cc1csc(C[C@H](C)C(=O)N[C@@H](CNC(=O)OC(C)(C)C)C(=O)N[C@@H](CC(C)C)[C@@H](O)C[C@@H](C)C(=O)N[C@H](CS(=O)(=O)CC(C)C)C(C)C)n1 [tert-butyl (S)-3-((4S,5S,7R)-5-hydroxy-8-((S)-1-(isobutylsulfonyl)-3-methylbutan-2-ylamino)-2,7-dimethyl-8-oxooctan-4-ylamino)-2-((S)-2-methyl-3-(4-methylthiazol-2-yl)propanamido)-3-oxopropylcarbamate]
- Ki [3]: > 600 nM
- Ki [2]: > 600 nM
